This is an account of results in patent US20010049368A1, “Method for treating or preventing depression” (priority 2000, published 2001).

Each structure is given as a SMILES string.

One data set addresses T1, human NK-1 receptor (Homo sapiens, UniProt P25103).
T1 construct: expressed in transfected cells; host or cells: intact CHO (Chinese hamster ovary) cells
Put plainly: NK-1 receptor binding assay in intact CHO cells (125I-Tyr8-substance P). The following applies: CHO cells expressing the human NK-1 receptor.

In data set [1] the test system is PDE IV inhibitor-induced emesis in the ferret. In words: Ferret emesis: PDE4 inhibitors and neurokinin-1 receptor antagonists. The settings on record: NK-1 antagonist 3 mg kg-1 i.p. or s.c. 30 minutes prior to oral emetic dose of PDE IV inhibitor. The class given is in vivo. How it is done: Intracerebroventricular (i.c.v.) administration was performed following a surgical implantation of an i.c.v. guide cannula. Under isoflurane anaesthesia, a 22 gauge stainless steel guide cannula (total length=20 mm) was lowered 9 mm below the surface of the skull, at the midline, 2 mm anterior to the cross-suture of the posterior edge of the skull. The tip of the guide cannula is then positioned 3-5 mm directly above the area postrema. The guide cannula was fixed to the skull using 2 screws and dental acrylic cement. The animals received antibiotic (Clamoxyl LA, SmithKline Beecham, Surrey, U.K.; 15 mg kg^−1 s.c.) and analgesic injections (Zenecarp, C-Vet Limited, Edmounds, U.K.; 5 mg kg^−1 s.c.) and were housed in individual cages. They were allowed at least 1 week to recover. Intracerebroventricular administration of drugs was performed by inserting an injection unit of 24-25 mm (level of the area postrema) or 27 mm (for brain tissue injection) length into the guide cannula and infusing 2 μl of the drug solution (or vehicle) over 1 minute. The drugs were dissolved in DMSO or sterile water. […]
Anti-emetic agents ondansetron (3 mg kg^−1 i.p.), and neurokinin-1 receptor antagonists (3 mg kg^−1 i.p. or s.c.) were administered 30 minutes prior to an oral challenge with an emetic dose of selected PDE IV inhibitors. […] The emetic response was monitored as described earlier. […]

For data set [2], the system named is emesis in ferrets (retches and vomits). In words: Ferret emesis: PDE4 inhibitors and alpha-2 adrenoreceptor agonists/antagonists. The following applies: for emesis (retching and vomiting) induced by the drug itself: yohimbine by intraperitoneal injection, clonidine 62.5-250 μg kg-1.
Protocol: Experiments were conducted using male, adult, fitch or albino ferrets. They were housed in a humidity and temperature controlled environment and fed on carnivore diet (standard cat food) once a day with water ad libitum. On the day of the experiment, the animals were put in individual observation cages and left to habituate for at least 30 minutes.
Drugs were dissolved immediately before use in 100% PEG 300 or sterile water). Oral administration (p.o.) was performed using a 10 cm feeding tube and drugs were administered in a dosing volume of 1 ml kg^−1. Subcutaneous (s.c.) injections were performed at the base of the neck, using sterile water or PEG 300 as the vehicle. The injection volume used was 0.5-1.0 ml kg^−1. For intravenous (i.v.) injections, the left jugular vein was catheterized with a polyethene cannula under halothane anaesthesia. Drugs were dissolved in PEG 300 50% in sterile water and injected in a volume of 1 ml-kg^−1. The vein was then ligated, the incision closed and the animals observed continuously thereafter.
Ferrets were pre-treated with the alpha2-adrenoceptor antagonist, yohimbine.

T1 sequence (P25103 whole entry): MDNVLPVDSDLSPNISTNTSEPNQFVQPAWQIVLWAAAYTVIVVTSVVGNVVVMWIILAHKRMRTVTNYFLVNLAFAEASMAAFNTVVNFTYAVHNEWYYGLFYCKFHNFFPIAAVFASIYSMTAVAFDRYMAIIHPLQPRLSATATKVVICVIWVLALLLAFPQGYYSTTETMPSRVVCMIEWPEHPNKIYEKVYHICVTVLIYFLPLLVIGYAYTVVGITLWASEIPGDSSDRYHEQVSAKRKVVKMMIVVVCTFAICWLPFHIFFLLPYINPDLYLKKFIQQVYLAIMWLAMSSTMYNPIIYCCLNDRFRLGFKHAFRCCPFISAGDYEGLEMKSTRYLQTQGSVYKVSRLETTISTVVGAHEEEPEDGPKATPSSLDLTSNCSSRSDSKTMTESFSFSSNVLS
Protocol for human NK-1 receptor: NK-1 receptor binding assays are performed in intact Chinese hamster ovary (CHO) cells expressing the human NK-1 receptor using a modification of the assay conditions described by Cascieri et al, J. Pharmacol. Exp. Ther., 1992, 42, 458. Typically, the receptor is expressed at a level of 3×10^5 receptors per cell. Cells are grown in monolayer culture, detached from the plate with enzyme-free dissociation solution (Speciality Media Inc.), and washed prior to use in the assay. ^125I-Tyr^8-substance P (0.1 nM, 2000 Ci/mmol; New England Nuclear) is incubated in the presence or absence of test compounds (dissolved in 5 μl dimethylsulphoxide, DMSO) with 5×10^4 CHO cells. Ligand binding is performed in 0.25 ml of 50 mM Tris-HCl, pH7.5, containing 5 mM MnCl2, 150 mM NaCl, 0.02% bovine serum albumin (Sigma), 50 μg/ml chymostatin (Peninsula), 0.1 nM phenylmethylsulphonyl fluoride, 2 μg/ml pepstatin, 2 μg/ml leupeptin and 2.8 μg/ml furoyl saccharine. The incubation proceeds at room temperature until equilibrium is achieved (>40 minutes) and the receptor-ligand complex is harvested by filtration over GF/C filters pre-soaked in 0.1% polyethylenimine using a Tomtek 96-well harvester. Non-specific binding is determined using excess substance P (1 μM) and represents <10% of total binding.

In general, IC50 refers to the concentration that gives 50% inhibition. Read a low IC50 as greater potency. Turning to `C[C@@H](O[C@H]1OCCN(Cc2nn[nH]c2CN(C)C)[C@H]1c1ccccc1)c1cc(C(F)(F)F)cc(C(F)(F)F)c1` [2-(R)-(1-(R)-(3,5-bis(trifluoromethyl)phenyl)ethoxy)-4-(5-(N,N-dimethylamino)methyl-1,2,3-triazol-4-yl)methyl-3-(S)-phenylmorpholine], on human NK-1 receptor, the concentration for half-maximal inhibition (IC50) turned out to be 0.25 nM. Turning to `COc1ccccc1CN[C@H]1CCCN[C@H]1c1ccccc1` [CP-99,994], the “effect on PDE IV inhibitor-induced emesis” value in data set [1] is on record as “abolished”.

Take `COC(=O)[C@@H]1[C@H]2C[C@H]3c4[nH]c5ccccc5c4CCN3C[C@@H]2CC[C@@H]1O` [yohimbine]: the “emesis (retching and vomiting) induced by the drug itself” value in data set [2] is “induced retching and vomiting in all ferrets treated”. Take `Clc1cccc(Cl)c1N=C1NCCN1` [clonidine]: in data set [2] (RS 14203 1 mg kg-1 p.o., clonidine 62.5-250 μg kg-1 pre-treatment), the “number of retches and vomits induced by RS 14203” value is listed as “dose-dependently decreased”. Also, the “latency of onset of RS 14203-induced emesis” value in data set [2] (RS 14203 1 mg kg-1 p.o., clonidine pre-treatment) is “increased”. The “emesis induced by CT-2450” value in data set [2] (clonidine 250 μg kg-1, CT-2450 30 mg kg-1 p.o., all animals treated) was “abolished”. Besides, the “animals with complete protection against R-rolipram-induced emesis” value in data set [2] (clonidine 250 μg kg-1, R-rolipram 3 mg kg-1 p.o.) is “two out of three”. Also, the “animals with complete protection against RS 14203-induced emesis” value in data set [2] (clonidine 250 μg kg-1, RS 14203 1 mg kg-1 p.o.) is on record as “five out of six”. With `CN1CC[C@]2(CCN3CCc4c(oc5ccccc45)[C@@H]3C2)N(C)C1=O` [MK-912], the “emesis (retching and vomiting) induced by the drug itself” value in data set [2] was “Emesis was also recorded”. The same measure, in the same setting: the entry for `CS(=O)(=O)NCCN1C(=O)NC[C@]12CCN1CCc3c(oc4ccccc34)[C@@H]1C2` [MK-467] is “Emesis was also recorded”.
